According to patent publication US8558004B2, “Reagents and kits for detection of influenza virus and the like” (priority 2007, dated 2013):

Tested on: influenza virus (A/WS/33)
Settings: FIG. 6
Method: The protocol described here is a two-step assay, i.e., the neuraminidase reaction and firefly luciferase reaction are carried out sequentially in two steps. Approximately 1 μg of conjugate was incubated at 37° C. for 15 minutes with 0, 0.5, 5, 50, 500 or 5,000 TCID50 units of influenza virus (A/WS/33) in a 25 μL reaction solution (32.5 mM MES, pH 6.5, 4 mM CaCl2, 0.65% Triton X-100). 12.5 μL of the reaction solution was mixed with 100 μL of luciferase reaction solution (20 nM recombinant firefly luciferase, 4 mM ATP, 13.4 mM MgSO4, 100 mM Trizma, pH 7.9, 4% mannitol, and 1% sucrose) and measured for light signal using a luminometer (Sirius purchased from Berthold). Total light output was collected by integrating RLU over a period of 30 seconds.

Compound: CC(=O)NC1C(O)CC(Oc2ccc3nc(C4=NC(C(=O)O)CS4)sc3c2)(C(=O)O)OC1C(O)C(O)CO (centres unmarked) [N-acetylneuraminic acid-firefly luciferin conjugate]
- influenza virus input resulting in significantly more signal in comparison with the negative control (approx. 1 μg conjugate, 37° C., 15 minutes, pH 6.5, RLU integrated over 30 seconds): 50 TCID50 units
- response of the signal to virus input (over the entire range tested (0.5 to 5,000 TCID50 units)): linear response
